{"source": "ChEMBL document CHEMBL4177690", "about": "“(E)-3-(3,4,5-Trimethoxyphenyl)-1-(pyridin-4-yl)prop-2-en-1-one, a heterocyclic chalcone is a potent and selective CYP1A1 inhibitor and cancer chemopreventive agent” (Bioorg Med Chem Lett, 2017)", "key": {"[1]": {"biological_target": "T1, Cytochrome P450 1A1 (Homo sapiens, UniProt P04798)", "T1 sequence (P04798 whole entry)": "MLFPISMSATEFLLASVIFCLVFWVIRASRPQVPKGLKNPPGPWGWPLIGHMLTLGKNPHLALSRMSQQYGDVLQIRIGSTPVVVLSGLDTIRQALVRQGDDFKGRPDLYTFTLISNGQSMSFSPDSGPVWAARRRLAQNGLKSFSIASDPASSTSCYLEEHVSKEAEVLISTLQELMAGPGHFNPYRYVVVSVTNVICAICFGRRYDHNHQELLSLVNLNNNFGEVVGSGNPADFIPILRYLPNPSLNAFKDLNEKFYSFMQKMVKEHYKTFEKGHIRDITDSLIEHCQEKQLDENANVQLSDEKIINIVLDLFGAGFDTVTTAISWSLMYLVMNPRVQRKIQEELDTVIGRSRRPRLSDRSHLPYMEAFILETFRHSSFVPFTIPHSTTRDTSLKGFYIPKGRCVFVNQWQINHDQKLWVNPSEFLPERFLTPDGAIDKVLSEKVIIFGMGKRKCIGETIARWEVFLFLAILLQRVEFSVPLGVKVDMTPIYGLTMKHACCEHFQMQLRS", "assay": "Time-dependent inhibition of human CYP1A1 expressed in yeast microsomal membranes using 7-ethoxyresorufin as substrate; call rule not given here", "type": "cell membranes"}, "[2]": {"biological_target": "Cytochrome P450 3A4 (Homo sapiens, UniProt P08684)", "sequence (P08684 whole entry)": "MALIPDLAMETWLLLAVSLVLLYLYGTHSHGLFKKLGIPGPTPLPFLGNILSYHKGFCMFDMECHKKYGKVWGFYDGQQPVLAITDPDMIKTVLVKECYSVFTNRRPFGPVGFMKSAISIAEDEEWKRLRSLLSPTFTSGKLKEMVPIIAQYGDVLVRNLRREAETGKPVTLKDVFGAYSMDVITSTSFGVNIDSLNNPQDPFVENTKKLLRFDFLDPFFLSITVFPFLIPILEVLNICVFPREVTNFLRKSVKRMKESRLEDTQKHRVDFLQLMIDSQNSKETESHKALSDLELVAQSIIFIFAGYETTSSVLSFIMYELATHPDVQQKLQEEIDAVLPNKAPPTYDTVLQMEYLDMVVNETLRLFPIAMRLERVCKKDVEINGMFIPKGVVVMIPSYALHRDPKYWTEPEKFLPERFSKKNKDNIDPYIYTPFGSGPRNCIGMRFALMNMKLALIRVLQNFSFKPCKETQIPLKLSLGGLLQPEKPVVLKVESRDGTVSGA", "assay": "Inhibition of recombinant human CYP3A4 expressed in HEK293 cells using dibenzylfluorescein as substrate pretreated for 30 mins followed by substrate addition measured for 60 mins by fluorescence assay", "type": "ADME"}, "[3]": {"biological_target": "T1, Cytochrome P450 1A1", "assay": "Inhibition of recombinant human CYP1A1 expressed in HEK293 cells using 7-ethoxyresorufin as substrate pretreated for 30 mins followed by substrate addition measured for 60 mins by fluorescence assay", "type": "cell-based"}, "[4]": {"species": "Homo sapiens", "assay": "Selectivity ratio of IC50 for recombinant human CYP2C19 to IC50 for recombinant human CYP1A1"}, "[5]": {"species": "Homo sapiens", "assay": "Selectivity ratio of IC50 for recombinant human CYP2D6 to IC50 for recombinant human CYP1A1"}, "[6]": {"biological_target": "T1, Cytochrome P450 1A1", "assay": "Inhibition of human CYP1A1 expressed in yeast cells", "type": "cell-based"}, "[7]": {"biological_target": "Cytochrome P450 2C19 (Homo sapiens, UniProt P33261)", "sequence (P33261 whole entry)": "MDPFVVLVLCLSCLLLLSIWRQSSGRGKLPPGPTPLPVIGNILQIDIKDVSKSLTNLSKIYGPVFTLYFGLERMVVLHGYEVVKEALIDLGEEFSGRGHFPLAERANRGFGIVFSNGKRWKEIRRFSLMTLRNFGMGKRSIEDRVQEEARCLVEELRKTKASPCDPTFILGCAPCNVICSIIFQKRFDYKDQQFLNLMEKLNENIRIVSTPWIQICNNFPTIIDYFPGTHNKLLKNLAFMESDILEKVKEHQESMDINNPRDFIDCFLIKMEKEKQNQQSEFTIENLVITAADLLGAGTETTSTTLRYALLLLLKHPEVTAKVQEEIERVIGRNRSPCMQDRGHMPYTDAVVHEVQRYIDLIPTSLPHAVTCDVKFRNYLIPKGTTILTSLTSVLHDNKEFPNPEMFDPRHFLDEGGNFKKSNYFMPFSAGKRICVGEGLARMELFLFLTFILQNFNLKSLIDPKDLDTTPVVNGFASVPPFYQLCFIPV", "assay": "Inhibition of human CYP2C19 expressed in yeast microsomal membranes using 3-cyano-7-ethoxycoumarin as substrate measured after 10 mins by fluorescence assay", "type": "ADME, cell membranes, Microsomal Membrane"}, "[8]": {"species": "Homo sapiens", "assay": "Selectivity ratio of IC50 for recombinant human CYP2C9 to IC50 for recombinant human CYP1A1"}, "[9]": {"biological_target": "T1, Cytochrome P450 1A1", "assay": "Competitive inhibition of human CYP1A1 using 7-ethoxyresorufin as substrate"}, "[10]": {"species": "Homo sapiens", "assay": "Selectivity ratio of IC50 for recombinant human CYP1B1 expressed in HEK293 cells to IC50 for recombinant human CYP1A1 expressed in HEK293 cells", "type": "cell-based"}, "[11]": {"biological_target": "Cytochrome P450 2D6 (Homo sapiens, UniProt P10635)", "sequence (P10635 whole entry)": "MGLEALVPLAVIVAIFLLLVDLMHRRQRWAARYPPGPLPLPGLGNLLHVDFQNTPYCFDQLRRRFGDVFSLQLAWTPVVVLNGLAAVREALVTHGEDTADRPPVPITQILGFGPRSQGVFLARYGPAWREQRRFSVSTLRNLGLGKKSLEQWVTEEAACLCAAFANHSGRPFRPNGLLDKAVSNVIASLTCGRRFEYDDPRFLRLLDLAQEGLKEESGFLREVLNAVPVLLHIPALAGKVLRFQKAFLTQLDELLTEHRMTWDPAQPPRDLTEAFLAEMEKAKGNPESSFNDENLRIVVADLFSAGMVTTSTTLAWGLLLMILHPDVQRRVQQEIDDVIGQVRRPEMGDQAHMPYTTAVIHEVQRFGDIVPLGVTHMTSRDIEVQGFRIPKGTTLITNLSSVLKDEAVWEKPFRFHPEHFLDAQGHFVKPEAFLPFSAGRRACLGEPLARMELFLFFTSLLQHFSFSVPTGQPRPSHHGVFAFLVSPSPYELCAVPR", "assay": "Inhibition of recombinant human CYP2D6 expressed in HEK293 cells using 7-ethoxy-methyloxy-3-cyanocoumarin as substrate pretreated for 30 mins followed by substrate addition measured for 60 mins by fluorescence assay", "type": "ADME, cell-based"}, "[12]": {"biological_target": "T2, Aryl hydrocarbon receptor (Homo sapiens, UniProt P35869)", "T2 sequence (P35869 whole entry)": "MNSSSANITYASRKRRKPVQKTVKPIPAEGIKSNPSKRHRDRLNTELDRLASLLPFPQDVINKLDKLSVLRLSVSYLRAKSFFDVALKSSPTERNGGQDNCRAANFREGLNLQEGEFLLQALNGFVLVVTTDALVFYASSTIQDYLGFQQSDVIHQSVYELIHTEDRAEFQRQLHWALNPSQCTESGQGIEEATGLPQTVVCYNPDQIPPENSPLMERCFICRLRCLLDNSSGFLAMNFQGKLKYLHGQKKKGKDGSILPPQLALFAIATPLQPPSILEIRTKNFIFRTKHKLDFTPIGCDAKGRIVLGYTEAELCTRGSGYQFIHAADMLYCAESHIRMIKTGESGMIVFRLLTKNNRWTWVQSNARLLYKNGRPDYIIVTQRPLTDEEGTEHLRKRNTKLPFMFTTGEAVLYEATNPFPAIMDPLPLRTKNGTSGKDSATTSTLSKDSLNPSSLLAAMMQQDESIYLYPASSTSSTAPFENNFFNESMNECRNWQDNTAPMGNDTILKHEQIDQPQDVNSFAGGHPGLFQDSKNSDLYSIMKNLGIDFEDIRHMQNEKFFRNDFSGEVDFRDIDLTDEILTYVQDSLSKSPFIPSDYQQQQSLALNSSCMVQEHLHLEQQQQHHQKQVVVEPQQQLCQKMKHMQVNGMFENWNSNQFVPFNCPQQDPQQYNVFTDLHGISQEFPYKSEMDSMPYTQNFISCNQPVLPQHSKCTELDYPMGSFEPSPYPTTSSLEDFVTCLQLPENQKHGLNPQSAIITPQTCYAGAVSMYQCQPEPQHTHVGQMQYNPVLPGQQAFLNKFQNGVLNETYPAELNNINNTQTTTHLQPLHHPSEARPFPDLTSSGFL", "assay": "Antagonist activity at recombinant human eGFP-fused Ahr expressed in yeast cells co-expressing ARNT assessed as inhibition of benzo(a)pyrene-induced Ahr activation at 1 uM measured after 18 hrs by fluorescence assay", "type": "cell-based"}, "[13]": {"species": "Homo sapiens", "assay": "Selectivity ratio of IC50 for human CYP1A2 expressed in yeast microsomal membranes to IC50 for human CYP1A1 expressed in yeast microsomal membranes", "type": "cell membranes"}, "[14]": {"biological_target": "T3, Cytochrome P450 1B1 (Homo sapiens, UniProt Q16678)", "T3 sequence (Q16678 whole entry)": "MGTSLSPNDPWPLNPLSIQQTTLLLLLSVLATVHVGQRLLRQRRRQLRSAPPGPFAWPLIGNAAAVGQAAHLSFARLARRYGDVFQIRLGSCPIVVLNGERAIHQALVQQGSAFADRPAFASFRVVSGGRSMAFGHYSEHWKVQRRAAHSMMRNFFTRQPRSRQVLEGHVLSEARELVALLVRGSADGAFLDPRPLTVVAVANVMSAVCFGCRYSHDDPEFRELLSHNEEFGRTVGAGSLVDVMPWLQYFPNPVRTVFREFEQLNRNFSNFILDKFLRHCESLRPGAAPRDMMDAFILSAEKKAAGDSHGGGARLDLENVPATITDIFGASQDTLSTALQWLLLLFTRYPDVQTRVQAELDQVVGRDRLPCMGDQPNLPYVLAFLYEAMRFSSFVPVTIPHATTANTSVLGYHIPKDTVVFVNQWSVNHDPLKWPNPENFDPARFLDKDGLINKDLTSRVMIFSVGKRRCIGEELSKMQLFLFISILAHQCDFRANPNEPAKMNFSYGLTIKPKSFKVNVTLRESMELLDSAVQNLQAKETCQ", "assay": "Inhibition of human CYP1B1 expressed in yeast cells", "type": "cell-based"}, "[15]": {"biological_target": "T1, Cytochrome P450 1A1", "assay": "Time-dependent inhibition of recombinant human CYP1A1 expressed in HEK293 cells using 7-ethoxyresorufin as substrate"}, "[16]": {"biological_target": "Cytochrome P450 2C9 (Homo sapiens, UniProt P11712)", "sequence (P11712 whole entry)": "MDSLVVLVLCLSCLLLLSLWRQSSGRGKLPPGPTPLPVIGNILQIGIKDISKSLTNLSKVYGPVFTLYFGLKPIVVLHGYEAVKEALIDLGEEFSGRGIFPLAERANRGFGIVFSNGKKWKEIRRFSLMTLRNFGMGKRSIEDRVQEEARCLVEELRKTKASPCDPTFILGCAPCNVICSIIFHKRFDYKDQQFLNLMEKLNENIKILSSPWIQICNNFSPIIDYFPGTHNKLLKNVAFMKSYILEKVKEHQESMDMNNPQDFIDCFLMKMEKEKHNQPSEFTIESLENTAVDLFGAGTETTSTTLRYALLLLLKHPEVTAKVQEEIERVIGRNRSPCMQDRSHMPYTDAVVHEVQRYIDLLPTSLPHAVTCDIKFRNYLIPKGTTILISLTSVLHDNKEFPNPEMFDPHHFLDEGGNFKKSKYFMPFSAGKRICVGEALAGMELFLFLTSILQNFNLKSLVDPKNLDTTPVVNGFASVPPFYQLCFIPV", "assay": "Inhibition of recombinant human CYP2C9 expressed in HEK293 cells using 3-cyano-7-ethoxycoumarin as substrate pretreated for 30 mins followed by substrate addition measured for 60 mins by fluorescence assay", "type": "ADME"}}}
{"smiles": "COc1cc(/C=C/C(=O)c2ccncc2)cc(OC)c1OC", "values": [{"measurement": "TDI", "setting": "[1]", "result": "Not Active"}, {"measurement": "IC50", "setting": "[2]", "result": "> 10", "unit": "µM"}, {"measurement": "IC50", "setting": "[3]", "result": 58, "unit": "nM"}, {"measurement": "Ratio IC50", "setting": "[4]", "result": "> 100"}, {"measurement": "Ratio IC50", "setting": "[5]", "result": "> 100"}, {"measurement": "IC50", "setting": "[6]", "result": 150, "unit": "nM"}, {"measurement": "IC50", "setting": "[7]", "result": "> 20", "unit": "µM"}, {"measurement": "Ratio IC50", "setting": "[8]", "result": "> 100"}, {"measurement": "Ki", "setting": "[9]", "result": 280, "unit": "nM"}, {"measurement": "Ratio IC50", "setting": "[10]", "result": "< 10"}, {"measurement": "IC50", "setting": "[11]", "result": "> 10", "unit": "µM"}, {"measurement": "inhibition (INH)", "setting": "[12]", "result": "Active"}, {"measurement": "Ratio IC50", "setting": "[13]", "result": "> 10"}, {"measurement": "IC50", "setting": "[14]", "result": 6.12, "unit": "µM"}, {"measurement": "TDI", "setting": "[15]", "result": "Not Active"}, {"measurement": "IC50", "setting": "[16]", "result": "> 10", "unit": "µM"}]}
